Test results published in patent publication US7119073B2, “Peptides and their use as inhibitors of hepatitis C virus ns3 protease” (Istituto Di Ricerche Di Biologia Molecolare P. Angeletti SpA, priority 2001, dated 2006).
pIC50: −log10 of the molar value.

target: T1, full length NS3 protein noncovalently complexed with the full-length NS4A cofactor protein (NS3/NS4A complex) (Hepatitis C virus genotype 1b, UniProt P26663); test: Full-length NS3-NS4A heterodimer protein assay (Assay A); type: biochemical, hepatitis C virus (HCV); conditions: Table 1; full-length NS3/NS4A, NS5A-NS5B peptide substrate; read-out: Assay A
T1 construct: full length NS3 protein spanning residues 1027–1657 of the HCV polyprotein
Procedure: Full-Length NS3-NS4A Heterodimer Protein Assay (Assay A)
(Gallinari, P., Paolini, C., Brennan, D., Nardi, C., Steinkühler, C. and De Francesco, R. Modulation of hepatitis C virus NS3 protease and helicase activities through the interaction with NS4A. Biochemistry 38, 5620–5632, 1999)
In this assay the full length NS3 protein spanning residues 1027–1657 of the HCV polyprotein, noncovalently complexed with the full-length NS4A cofactor protein (residues 1658–1711) was used. Assays were performed in 60 μl of a buffer containing 50 mM Hepes pH 7.5, 0.15 M NaCl, 0.1% (v/v) Triton X-100, 15% (v/v) glycerol, 10 mM DTT, 2 nM NS3/NS4A complex. To this assay mix 10 μM (final concentration) of a peptide substrate corresponding to the NS5AB cleavage site and having the sequence of the NS5A-NS5B peptide, were added. Incubation times at 23° C. were adjusted to obtain <10% conversion. Reactions were stopped by the addition of 40 μl of 1% TFA. Cleavage was determined by HPLC using a Merck-Hitachi chromatograph equipped with an autosampler. 80 μl samples were injected on a Lichrospher C18 reversed phase cartridge column (4×74 mm, 5 μm, Merck) and fragments were separated using a 10–40% acetonitrile gradient at 5%/min using a flow rate of 2.5 ml/min. Peak detection was done by monitoring both the absorbance at 220 nm and tryptophan fluorescence (λex=280 nm, λem=350 nm). Cleavage products were quantitated by integration of chromatograms with respect to appropriate standards. Kinetic parameters were calculated from nonlinear least-squares fit of initial rates as a function of substrate concentration with the help of a Kaleidagraph software, assuming Michaelis-Menten kinetics.
Ki values of peptide inhibitors were calculated from substrate titration experiments performed in the presence of increasing amounts of inhibitor. Experimental data sets were simultaneously fitted to eg.1 using a multicurve fit macro with the help of a Sigmaplot software: V=(VmaxS)/(Km([…])+S); (eq.1) Alternatively, Ki values were derived from IC50 values, calculated using a four-parameter logistic function, according to eq.2: IC50=(1+S/Km)Ki (eq.2)

T1 sequence (P26663 1027-1657): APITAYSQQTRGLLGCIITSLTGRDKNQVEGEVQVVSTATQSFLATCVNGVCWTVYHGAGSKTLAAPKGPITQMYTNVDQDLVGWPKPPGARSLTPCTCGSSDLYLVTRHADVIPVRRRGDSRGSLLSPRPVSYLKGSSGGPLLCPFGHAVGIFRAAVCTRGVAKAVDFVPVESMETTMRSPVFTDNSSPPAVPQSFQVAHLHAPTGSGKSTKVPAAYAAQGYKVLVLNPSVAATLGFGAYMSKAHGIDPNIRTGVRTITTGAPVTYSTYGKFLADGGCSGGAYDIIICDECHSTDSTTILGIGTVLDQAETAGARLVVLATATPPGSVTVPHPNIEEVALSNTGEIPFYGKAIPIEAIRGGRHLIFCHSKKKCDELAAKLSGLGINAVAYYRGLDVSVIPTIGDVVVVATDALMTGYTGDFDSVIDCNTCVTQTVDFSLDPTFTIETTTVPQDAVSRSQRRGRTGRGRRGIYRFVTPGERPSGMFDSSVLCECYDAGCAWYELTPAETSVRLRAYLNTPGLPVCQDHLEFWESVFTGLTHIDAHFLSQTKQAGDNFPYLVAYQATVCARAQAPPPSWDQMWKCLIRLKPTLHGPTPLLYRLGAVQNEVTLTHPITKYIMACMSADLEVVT
T1 sequence (P26663 1658-1711): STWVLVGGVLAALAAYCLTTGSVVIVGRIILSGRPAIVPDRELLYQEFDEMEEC

Structure (SMILES) | pIC50
CC(C)COC(=O)NC(C(=O)NC(CC(C)C)C(=O)NC(CC(F)F)C(=O)NCCc1ccccc1CCC(=O)O)C(C)C (centres unmarked) [Compound 125] | > 4.00

same assay, conditions: Table 5; full-length NS3/NS4A; read-out: AssayA

Structure (SMILES) | pIC50
CC(C)COC(=O)N[C@H](C(=O)N1C[C@H]([S+]([O-])C2CCCCC2)C[C@H]1C(=O)N[C@@H](CC(F)F)C(=O)NCCc1c(F)cc(C(=O)O)cc1F)C(C)C (mixture of isomers) [Compound 552] | > 6.00
CCC(Nc1cccc(CCNC(=O)[C@H](CC(F)F)NC(=O)[C@@H]2C[C@@H](c3ccccc3)CN2C(=O)[C@@H](NC(=O)OCC(C)C)C(C)C)c1)C(=O)O (mixture of isomers) [Compound 563] | > 5.00
CC(C)COC(=O)N[C@H](C(=O)N1C[C@H](c2ccccc2)C[C@H]1C(=O)N[C@@H](CC(F)F)C(=O)NCCc1cccc(NC(C(=O)O)c2ccccc2)c1)C(C)C (mixture of isomers) [Compound 564] | > 5.00
CC(Oc1ccc(F)c(CCNC(=O)[C@H](CC(F)F)NC(=O)[C@@H]2C[C@@H](C3CCCCC3)CN2C(=O)[C@@H](NC(=O)OCC(C)(C)C)C(C)C)c1F)C(=O)O (mixture of isomers) [Compound 567] | > 6.00
CCC(Oc1ccc(F)c(CCNC(=O)[C@H](CC(F)F)NC(=O)[C@@H]2C[C@@H](C3CCCCC3)CN2C(=O)[C@@H](NC(=O)OCC(C)C)C(C)C)c1F)C(=O)O (mixture of isomers) [Compound 568] | > 6.00
CC(C)COC(=O)N[C@H](C(=O)N1C[C@H](c2ccccc2)C[C@H]1C(=O)N[C@@H](CC(F)F)C(=O)NCCc1cccc(OC(C(=O)O)c2ccccc2)c1)C(C)C (mixture of isomers) [Compound 569] | > 5.00
CC(C)COC(=O)N[C@H](C(=O)N1C[C@H](c2ccccc2)C[C@H]1C(=O)N[C@@H](CC(F)F)C(=O)NCCc1cccc(OC(C(=O)O)c2ccc(Br)cc2)c1)C(C)C (mixture of isomers) [Compound 570] | > 6.00
CC(C)COC(=O)N[C@H](C(=O)N1C[C@H](c2ccccc2)C[C@H]1C(=O)N[C@@H](CC(F)F)C(=O)NCCc1cc(OC(C(=O)O)c2cccc(Cl)c2)ccc1Cl)C(C)C (mixture of isomers) [Compound 571] | > 5.00
CC(C)COC(=O)NC(CCC(=O)O)C(=O)N1CCCC1C(=O)NC(CS)C(=O)NCCc1ccccc1Cl (centres unmarked) [Compound 501] | > 4.00
CC(C)COC(=O)NC(C(=O)N1CCCC1C(=O)NC(CC(F)F)C(=O)NCCc1c(F)cc(C(=O)O)cc1F)C(C)C (centres unmarked) [Compound 502] | > 5.00
CC(C)COC(=O)N[C@@H](CCC(=O)O)C(=O)N1C[C@H](O)C[C@H]1C(=O)N[C@@H](CS)C(=O)NCCc1ccccc1Cl [Compound 503] | > 4.00
COCCOCO[C@@H]1C[C@@H](C(=O)N[C@@H](CC(F)F)C(=O)NCCc2c(F)cc(C(=O)O)cc2F)N(C(=O)[C@@H](NC(=O)OCC(C)C)C(C)C)C1 [Compound 505] | > 5.00
CC(C)COC(=O)N[C@@H](CCC(=O)O)C(=O)N1C[C@H](c2ccccc2)CC1C(=O)N[C@@H](CS)C(=O)NCCc1ccccc1Cl (some centres unmarked) [Compound 506] | > 5.00
CC(C)COC(=O)N[C@@H](CCC(=O)O)C(=O)N1C[C@H](OCc2ccccc2)C[C@H]1C(=O)N[C@@H](CS)C(=O)NCCc1ccccc1Cl [Compound 507] | > 5.00
CC(C)COC(=O)N[C@@H](CCC(=O)O)C(=O)N1C[C@H](c2ccccc2)C[C@H]1C(=O)N[C@@H](CS)C(=O)NCCc1ccccc1Br [Compound 508] | > 4.00
CC(C)COC(=O)N[C@H](C(=O)N1C[C@H](OCc2ccc(C(=O)O)cc2)C[C@H]1C(=O)N[C@@H](CC(F)F)C(=O)NCCc1c(Cl)cccc1Cl)C(C)C [Compound 509] | > 4.00
CC(C)COC(=O)N[C@@H](CCC(=O)O)C(=O)N1C[C@H](c2ccccc2)C[C@H]1C(=O)N[C@@H](CC(F)F)C(=O)NCCc1ccccc1-c1ccccc1 [Compound 510] | > 5.00
CC(C)COC(=O)N[C@@H](CCC(=O)O)C(=O)N1C[C@H](c2ccccc2)C[C@H]1C(=O)N[C@@H](CC(F)F)C(=O)NCCC1=CCCCC1 [Compound 511] | > 4.00
CC(C)COC(=O)N[C@@H](CCC(=O)O)C(=O)N1C[C@H](c2ccccc2)C[C@H]1C(=O)N[C@@H](CS)C(=O)NCCc1ccc(C(=O)O)cc1 [Compound 512] | > 4.00

Structure (SMILES) | pIC50
O=C(O)CC[C@H](NS(=O)(=O)c1cccc2ccccc12)C(=O)N1C[C@H](c2ccccc2)C[C@H]1C(=O)N[C@@H](CS)C(=O)NCCc1ccc(C(=O)O)cc1 [Compound 513] | > 4.00
COC(=O)c1ccc(CCNC(=O)[C@H](CS)NC(=O)[C@@H]2C[C@@H](c3ccccc3)CN2C(=O)[C@H](CCC(=O)O)NS(=O)(=O)c2cccc3ccccc23)cc1 [Compound 514] | > 4.00
O=C(O)CC[C@H](NC(=O)[C@@H](O)c1ccccc1)C(=O)N1C[C@H](c2ccccc2)C[C@H]1C(=O)N[C@@H](CS)C(=O)NCCc1ccc(C(=O)O)cc1 [Compound 515] | > 4.00
CC(C)COC(=O)N[C@H](C(=O)N1C[C@H](c2ccccc2)C[C@H]1C(=O)N[C@@H](CS)C(=O)NCCc1ccc(C(=O)O)cc1)C(C)C [Compound 516] | > 5.00
CC(C)COC(=O)N[C@H](C(=O)N1C[C@H](c2ccccc2)C[C@H]1C(=O)N[C@@H](CC(F)F)C(=O)NCCc1ccc(C(=O)O)cc1)C(C)C [Compound 517] | > 5.00
CC(C)COC(=O)N[C@H](C(=O)N1C[C@H](c2ccccc2)C[C@H]1C(=O)N[C@@H](CC(F)F)C(=O)NCCc1ccc(-c2nn[nH]n2)cc1)C(C)C [Compound 518] | > 5.00
CC(C)COC(=O)N[C@H](C(=O)N1C[C@H](c2ccccc2)C[C@H]1C(=O)N[C@@H](CC(F)F)C(=O)NCCc1ccc(-c2noc(=O)[nH]2)cc1)C(C)C [Compound 519] | > 4.00
CC(C)COC(=O)N[C@@H](CCC(=O)O)C(=O)N1C[C@H](c2ccccc2)C[C@H]1C(=O)N[C@@H](CS)C(=O)NCCc1ccc(C(=O)O)cc1Cl [Compound 520] | > 5.00
CC(C)COC(=O)N[C@H](C(=O)N1C[C@H](c2ccccc2)C[C@H]1C(=O)N[C@@H](CS)C(=O)NCCc1ccc(C(=O)O)cc1Cl)C(C)C [Compound 521] | > 6.00
CC(C)COC(=O)N[C@H](C(=O)N1C[C@H](c2ccccc2)C[C@H]1C(=O)N[C@@H](CC(F)F)C(=O)NCCc1c(F)cc(C(=O)OC(C)C)cc1F)C(C)C [Compound 524] | > 4.00
CC[C@H](NC(=O)[C@@H]1C[C@@H](c2ccccc2)CN1C(=O)[C@@H](NC(=O)OCC(C)C)C(C)C)C(=O)NCCc1c(F)cc(C(=O)O)cc1F [Compound 525] | > 4.00
CC(C)COC(=O)N[C@H](C(=O)N1C[C@H](OCc2ccccc2)CC1C(=O)N[C@@H](CC(F)F)C(=O)NCCc1c(F)cc(C(=O)O)cc1F)C(C)C (some centres unmarked) [Compound 526] | > 6.00
CC(C)COC(=O)N[C@H](C(=O)N1C[C@@H](OCc2ccccc2)C[C@H]1C(=O)N[C@@H](CC(F)F)C(=O)NCCc1c(F)cc(C(=O)O)cc1F)C(C)C [Compound 527] | > 5.00
CC(C)COC(=O)N[C@H](C(=O)N1C[C@H](C2CCCCC2)C[C@H]1C(=O)N[C@@H](CC(F)F)C(=O)NCCc1c(F)cc(C(=O)O)cc1F)C(C)C [Compound 528] | > 6.00
CC(C)COC(=O)N[C@H](C(=O)N1C[C@H](C2CCCCC2)C[C@H]1C(=O)N[C@@H](CC(F)(F)F)C(=O)NCCc1c(F)cc(C(=O)O)cc1F)C(C)C [Compound 529] | > 5.00
CC(C)COC(=O)N[C@H](C(=O)N1C[C@H](OCc2ccccc2)C[C@H]1C(=O)N[C@@H](CC(F)(F)F)C(=O)NCCc1c(F)cc(C(=O)O)cc1F)C(C)C [Compound 530] | > 5.00
CC(C)COC(=O)N[C@H](C(=O)N1C[C@H](C2CCCCC2)C[C@H]1C(=O)N[C@@H](CC(F)F)C(=O)NCCc1ccc(C(=O)O)cc1F)C(C)C [Compound 531] | > 5.00
CC(C)COC(=O)N[C@H](C(=O)N1C[C@H](C2CCCCC2)C[C@H]1C(=O)N[C@@H](CC(F)F)C(=O)NCCc1ccc(C(=O)O)cc1Cl)C(C)C [Compound 532] | > 6.00
CC[C@H](C)[C@H](NC(=O)OCC(C)C)C(=O)N1C[C@H](C2CCCCC2)C[C@H]1C(=O)N[C@@H](CC(F)F)C(=O)NCCc1c(F)cc(C(=O)O)cc1F [Compound 533] | > 6.00

same assay, conditions: full-length NS3-NS4A heterodimer protein assay; read-out: Assay A (IC50 class)

Structure (SMILES) | pIC50
CC(C)C[C@H](NC(=O)C1(Cc2ccsc2C(=O)O)Cc2ccccc2N1)C(=O)N[C@@H](CC(F)F)C(=O)NCCc1cc2ccccc2[nH]1 (single isomer, unassigned) [Compound 707a] | > 4.00
CC(C)C[C@H](NC(=O)C1(Cc2ccsc2C(=O)O)Cc2ccccc2N1)C(=O)N[C@@H](CC(F)F)C(=O)NCCc1cc2ccccc2[nH]1 (single isomer, unassigned) [Compound 707b] | > 4.00
